From patent US20230286958A1, “PLASMA KALLIKREIN INHIBITORS” (Merck Sharp & Dohme LLC, priority 2020, published 2023)

Key:
human Factor XIa = human Factor XIa (Homo sapiens (Human), UniProt P03951); experiment: Factor XIa Assay (fluorogenic substrate GPR-AFC); assay type: biochemical; settings: Factor XIa (FXIa)
Human plasma kallikrein = Human plasma kallikrein (Homo sapiens (Human), UniProt P03952); experiment: Kallikrein Assay (fluorogenic substrate Acetyl-K-P-R-AFC); assay type: biochemical; settings: Plasma Kallikrein (PKal)
Human plasma kallikrein, sequence (P03952 391-638): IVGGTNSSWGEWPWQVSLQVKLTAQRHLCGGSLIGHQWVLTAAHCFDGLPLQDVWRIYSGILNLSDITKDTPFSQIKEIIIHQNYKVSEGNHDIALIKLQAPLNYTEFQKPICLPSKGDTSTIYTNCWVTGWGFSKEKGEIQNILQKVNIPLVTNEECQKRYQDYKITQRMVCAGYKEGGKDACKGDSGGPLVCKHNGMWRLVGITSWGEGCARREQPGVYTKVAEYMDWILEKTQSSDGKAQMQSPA
Human plasma kallikrein, sequence (P03952 20-390 partner): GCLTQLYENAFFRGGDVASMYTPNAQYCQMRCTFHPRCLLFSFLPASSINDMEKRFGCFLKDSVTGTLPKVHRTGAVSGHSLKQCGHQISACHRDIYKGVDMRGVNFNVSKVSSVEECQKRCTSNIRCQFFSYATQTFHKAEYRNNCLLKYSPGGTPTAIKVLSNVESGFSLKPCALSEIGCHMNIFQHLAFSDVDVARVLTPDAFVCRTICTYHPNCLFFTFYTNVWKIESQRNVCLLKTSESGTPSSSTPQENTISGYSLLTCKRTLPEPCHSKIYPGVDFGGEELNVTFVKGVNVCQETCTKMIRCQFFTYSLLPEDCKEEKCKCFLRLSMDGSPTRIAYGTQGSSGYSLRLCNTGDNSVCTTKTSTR
Procedure, shortened: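 Ki is derived from IC50 with the Cheng-Prusoff equation, and IC50 from the inflection point of a four-parameter logistic curve. The rate of AFC release is read with 0.5 nM purified enzyme and […] substrate at room temperature or 37 °C.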

human Factor XIa, sequence (P03951 388-625 limits assumed): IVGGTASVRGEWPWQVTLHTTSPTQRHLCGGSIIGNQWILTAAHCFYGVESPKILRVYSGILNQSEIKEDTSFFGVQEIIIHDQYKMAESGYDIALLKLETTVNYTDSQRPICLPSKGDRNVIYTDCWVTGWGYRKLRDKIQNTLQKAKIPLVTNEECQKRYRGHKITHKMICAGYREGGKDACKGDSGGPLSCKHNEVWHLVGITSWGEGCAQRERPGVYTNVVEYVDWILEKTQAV
human Factor XIa, sequence (P03951 19-387 partner limits assumed): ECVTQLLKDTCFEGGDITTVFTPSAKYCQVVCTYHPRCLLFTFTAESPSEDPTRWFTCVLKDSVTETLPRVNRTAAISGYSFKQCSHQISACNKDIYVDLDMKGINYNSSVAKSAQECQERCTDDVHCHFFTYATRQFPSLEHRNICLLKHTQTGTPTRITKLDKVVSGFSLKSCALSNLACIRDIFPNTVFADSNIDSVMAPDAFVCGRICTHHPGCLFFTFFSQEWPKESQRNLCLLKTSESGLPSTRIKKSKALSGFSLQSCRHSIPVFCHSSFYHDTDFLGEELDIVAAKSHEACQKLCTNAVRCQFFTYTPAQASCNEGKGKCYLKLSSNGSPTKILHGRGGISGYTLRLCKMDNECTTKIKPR

Row | SMILES | IC50 (human Factor XIa) | IC50 (Human plasma kallikrein)
1 | Cc1cc(C(C)n2cc(NC(=O)c3cc(-c4c(C(F)F)ccc(Cl)c4F)c[n+]([O-])c3)cn2)cnc1N1C[C@H]2C[C@H]2C1=O (single isomer, unassigned) [Example 106, 5-(3-Chloro-6-(difluoromethyl)-2-fluorophenyl)-N-(1-((S or R)-1-(5-methyl-6-((1R,5S)-2-oxo-3-azabicyclo[3.1.0]hexan-3-yl)pyridin-3-yl)ethyl)-1H-pyrazol-4-yl)-1-(l1-oxidanyl)-114-pyridine-3-carboxamide] | 103 nM | 1.4 nM
2 | Cc1cc(C(C)n2cc(NC(=O)c3cc(-c4c(C(F)F)ccc(Cl)c4F)c[n+]([O-])c3)cn2)cnc1N1C[C@H]2C[C@H]2C1=O (single isomer, unassigned) [Example 107, 5-(3-Chloro-6-(difluoromethyl)-2-fluorophenyl)-N-(1-((R or S)-1-(5-methyl-6-((1R,5S)-2-oxo-3-azabicyclo[3.1.0]hexan-3-yl)pyridin-3-yl)ethyl)-1H-pyrazol-4-yl)-1-(l1-oxidanyl)-114-pyridine-3-carboxamide] | 260 nM | 1.5 nM
3 | Cc1ccc(Cl)c(F)c1-c1cncc(C(=O)Nc2cnn(C(C)c3cnc(N4C[C@H]5C[C@H]5C4=O)nc3C)c2)n1 (single isomer, unassigned) [Example 108, 6-(3 -Chloro-2-fluoro-6-methylphenyl)-N-(1-((S or R)-1-(4-methyl-2-((1R,5S)-2-oxo-3-azabicyclo[3.1.0]hexan-3-yl)pyrimidin-5-yl)ethyl)-1H-pyrazol-4-yl)pyrazine-2-carboxamide] | > 10000 nM | 16.6 nM

Other lines, results leading:

Row | IC50 (human Factor XIa) | IC50 (Human plasma kallikrein) | SMILES
4 | 1920 nM | 5.1 nM | Cc1ccc(Cl)c(F)c1-c1cncc(C(=O)Nc2cnn(C(C)c3cnc(N4C[C@H]5C[C@H]5C4=O)nc3C)c2)n1 (single isomer, unassigned) [Example 109, 6-(3 -Chloro-2-fluoro-6-methylphenyl)-N-(1-((R or S)-1-(4-methyl-2-((1R,5S)-2-oxo-3-azabicyclo[3.1.0]hexan-3-yl)pyrimidin-5-yl)ethyl)-1H-pyrazol-4-yl)pyrazine-2-carboxamide]
5 | 3450 nM | 14 nM | Cc1c(C(C)n2cc(NC(=O)c3cncc(-c4c(C(F)F)ccc(Cl)c4F)n3)cn2)nnc(N2C[C@H]3C[C@H]3C2=O)c1C (single isomer, unassigned) [Example 110, 6-(3-Chloro-6-(difluoromethyl)-2-fluorophenyl)-N-(1-((S or R)-1-(4,5-dimethyl-6-((1R,5S)-2-oxo-3-azabicyclo[3.1.0]hexan-3-yl)pyridazin-3-yl)ethyl)-1H-pyrazol-4-yl)pyrazine-2-carboxamide]
6 | 108 nM | 0.4 nM | Cc1c(C(C)n2cc(NC(=O)c3cncc(-c4c(C(F)F)ccc(Cl)c4F)n3)cn2)nnc(N2C[C@H]3C[C@H]3C2=O)c1C (single isomer, unassigned) [Example 111, 6-(3-Chloro-6-(difluoromethyl)-2-fluorophenyl)-N-(1-((R or S)-1-(4,5-dimethyl-6-((1R,5S)-2-oxo-3-azabicyclo[3.1.0]hexan-3-yl)pyridazin-3-yl)ethyl)-1H-pyrazol-4-yl)pyrazine-2-carboxamide]
7 | 558 nM | 0.7 nM | Cc1cc(C(C)n2cc(NC(=O)c3cncc(-c4c(OC(F)F)ccc(Cl)c4F)n3)cn2)nnc1N1C[C@H]2C[C@H]2C1=O (single isomer, unassigned) [Example 114, 6-(3-Chloro-6-(difluoromethoxy)-2-fluorophenyl)-N-(1-((S or R)-1-(5-methyl-6-((1R,5S)-2-oxo-3-azabicyclo[3.1.0]hexan-3-yl)pyridazin-3-yl)ethyl)-1H-pyrazol-4-yl)pyrazine-2-carboxamide]
